Here are results for 27 molecules from ChEMBL document CHEMBL2331502, “Discovery of a novel series of quinolone α7 nicotinic acetylcholine receptor agonists” (Bioorg Med Chem Lett, 2013).

Data set [1] can be described thus: Dissociation constant, pKa of the compound. The data set is classed as physicochemical.
The target in data set [2] is Neuronal acetylcholine receptor subunit alpha-7 (Rattus norvegicus) (UniProt Q05941). The data set can be described thus: Agonist activity at rat alpha7 nAChR expressed in HEK293 cells assessed as area under the curve of acetylcholine-induced response by whole-cell patch clamp electrophysiology paradigm assay relative to control. The class given is cell-based. (The patch-clamp technique gives a direct electrical read-out from membranes.)
Chain of Neuronal acetylcholine receptor subunit alpha-7 (Rattus norvegicus) (Q05941 whole entry): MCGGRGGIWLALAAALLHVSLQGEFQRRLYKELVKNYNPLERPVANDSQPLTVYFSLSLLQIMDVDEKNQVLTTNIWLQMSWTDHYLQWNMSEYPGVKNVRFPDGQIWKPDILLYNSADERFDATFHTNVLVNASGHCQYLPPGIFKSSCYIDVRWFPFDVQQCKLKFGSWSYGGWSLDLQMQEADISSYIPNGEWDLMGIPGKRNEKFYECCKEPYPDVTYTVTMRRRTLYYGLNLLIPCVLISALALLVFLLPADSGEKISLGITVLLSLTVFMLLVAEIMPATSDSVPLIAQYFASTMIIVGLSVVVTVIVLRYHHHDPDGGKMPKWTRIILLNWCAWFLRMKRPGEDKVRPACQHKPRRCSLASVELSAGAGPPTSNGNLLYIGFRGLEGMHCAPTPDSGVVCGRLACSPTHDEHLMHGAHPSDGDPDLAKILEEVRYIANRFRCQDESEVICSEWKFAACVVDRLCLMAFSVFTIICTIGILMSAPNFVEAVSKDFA

The target in data set [3] is T1, Neuronal acetylcholine receptor subunit alpha-7 (Rattus norvegicus, UniProt Q05941). Briefly: Agonist activity at rat alpha7 nAChR expressed in HEK293 cells assessed as area under the curve of acetylcholine-induced response by whole-cell patch clamp electrophysiology paradigm assay. The class given is cell-based.
T1 sequence (Q05941 whole entry): as above
Data set [4] has as its target Neuronal acetylcholine receptor subunit alpha-7 (Rattus norvegicus) (UniProt Q05941). The data set can be described thus: Agonist activity at rat alpha7 nAChR expressed in HEK293 cells assessed as peak intensity of acetylcholine-induced response by whole-cell patch clamp electrophysiology paradigm assay relative to control. The class given is cell-based.
In data set [5] the target is T1, Neuronal acetylcholine receptor subunit alpha-7. Briefly: Agonist activity at rat alpha7 nAChR expressed in HEK293 cells assessed as calcium ion influx by FRET assay. The data set is classed as cell-based.
Data set [6] is described as follows: Ratio of drug level in brain to plasma in ip dosed rat after 30 mins. The data set is classed as ADME, organism-based. The note with it: read-out: BPR.
Data set [7] in a line: Efflux ratio of the compound in human Caco2 cells. The class given is ADME, cell-based. The note with it: Caco-2. A general note: Caco-2 cells form a polarised layer with tight junctions and transporters.
A short description of data set [8]: Permeability of the compound at pH 7.4 by PAMPA. The data set is classed as ADME. As to conditions: read-out: permeability. Background: The PAMPA barrier holds no transporters, so it reflects passive diffusion.
A short description of data set [9]: Ratio of drug level in brain to plasma in sc dosed rat after 30 mins. The class given is ADME, organism-based. The note with it: read-out: BPR.
Data set [10] concerns the target Neuronal acetylcholine receptor; alpha3/beta4 (Homo sapiens, UniProt P30926+P32297). The data set can be described thus: Agonist activity at alpha3beta4 nAChR (unknown origin). The class given is protein-complex assay.
In data set [11] the target is Acetylcholine receptor; alpha1/beta1/delta/gamma (Homo sapiens, UniProt P02708+P07510+P11230+Q07001). Briefly: Agonist activity at alpha1beta1deltaepsilon nAChR (unknown origin). The data set is classed as protein-complex assay.
Chain of Acetylcholine receptor; alpha1/beta1/delta/gamma (P02708 whole entry): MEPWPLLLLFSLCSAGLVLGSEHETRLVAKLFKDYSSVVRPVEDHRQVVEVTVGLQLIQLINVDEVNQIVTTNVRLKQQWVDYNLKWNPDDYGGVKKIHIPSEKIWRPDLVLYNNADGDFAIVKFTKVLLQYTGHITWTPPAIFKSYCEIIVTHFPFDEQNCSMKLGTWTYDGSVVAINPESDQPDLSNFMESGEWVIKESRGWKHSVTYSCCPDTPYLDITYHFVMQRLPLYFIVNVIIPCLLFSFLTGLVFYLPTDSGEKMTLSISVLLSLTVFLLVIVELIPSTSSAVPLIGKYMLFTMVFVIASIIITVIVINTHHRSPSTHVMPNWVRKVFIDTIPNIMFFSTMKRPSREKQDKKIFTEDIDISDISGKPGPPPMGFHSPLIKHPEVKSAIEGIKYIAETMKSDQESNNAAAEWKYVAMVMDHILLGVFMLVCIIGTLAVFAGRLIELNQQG
Chain of Acetylcholine receptor; alpha1/beta1/delta/gamma (P07510 whole entry): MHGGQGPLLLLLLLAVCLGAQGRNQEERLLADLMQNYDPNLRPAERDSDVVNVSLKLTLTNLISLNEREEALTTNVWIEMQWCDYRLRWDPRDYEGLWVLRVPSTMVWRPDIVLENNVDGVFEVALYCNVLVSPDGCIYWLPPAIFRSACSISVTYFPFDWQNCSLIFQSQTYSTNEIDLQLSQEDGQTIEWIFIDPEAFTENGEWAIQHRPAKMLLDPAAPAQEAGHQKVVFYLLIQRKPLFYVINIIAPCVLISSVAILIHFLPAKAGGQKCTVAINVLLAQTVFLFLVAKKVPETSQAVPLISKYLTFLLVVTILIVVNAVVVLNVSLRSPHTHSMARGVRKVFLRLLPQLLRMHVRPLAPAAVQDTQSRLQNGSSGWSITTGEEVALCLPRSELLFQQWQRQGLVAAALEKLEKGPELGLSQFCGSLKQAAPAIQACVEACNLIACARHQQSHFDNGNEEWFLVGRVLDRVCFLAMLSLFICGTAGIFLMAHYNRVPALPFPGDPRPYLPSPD
Chain of Acetylcholine receptor; alpha1/beta1/delta/gamma (P11230 whole entry): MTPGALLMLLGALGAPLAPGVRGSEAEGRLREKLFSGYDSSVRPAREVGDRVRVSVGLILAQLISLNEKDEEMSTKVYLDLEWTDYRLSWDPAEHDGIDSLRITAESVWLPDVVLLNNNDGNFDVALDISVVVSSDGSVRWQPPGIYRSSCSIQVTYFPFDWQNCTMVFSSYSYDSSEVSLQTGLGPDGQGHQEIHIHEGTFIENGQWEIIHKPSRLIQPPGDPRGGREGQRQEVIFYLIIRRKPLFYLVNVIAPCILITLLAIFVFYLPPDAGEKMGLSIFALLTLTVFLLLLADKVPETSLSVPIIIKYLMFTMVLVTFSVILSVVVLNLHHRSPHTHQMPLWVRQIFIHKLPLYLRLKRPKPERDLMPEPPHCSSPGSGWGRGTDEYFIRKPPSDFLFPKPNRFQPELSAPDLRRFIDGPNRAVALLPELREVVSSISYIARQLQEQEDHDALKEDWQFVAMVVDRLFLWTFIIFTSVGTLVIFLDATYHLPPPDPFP
Chain of Acetylcholine receptor; alpha1/beta1/delta/gamma (Q07001 whole entry): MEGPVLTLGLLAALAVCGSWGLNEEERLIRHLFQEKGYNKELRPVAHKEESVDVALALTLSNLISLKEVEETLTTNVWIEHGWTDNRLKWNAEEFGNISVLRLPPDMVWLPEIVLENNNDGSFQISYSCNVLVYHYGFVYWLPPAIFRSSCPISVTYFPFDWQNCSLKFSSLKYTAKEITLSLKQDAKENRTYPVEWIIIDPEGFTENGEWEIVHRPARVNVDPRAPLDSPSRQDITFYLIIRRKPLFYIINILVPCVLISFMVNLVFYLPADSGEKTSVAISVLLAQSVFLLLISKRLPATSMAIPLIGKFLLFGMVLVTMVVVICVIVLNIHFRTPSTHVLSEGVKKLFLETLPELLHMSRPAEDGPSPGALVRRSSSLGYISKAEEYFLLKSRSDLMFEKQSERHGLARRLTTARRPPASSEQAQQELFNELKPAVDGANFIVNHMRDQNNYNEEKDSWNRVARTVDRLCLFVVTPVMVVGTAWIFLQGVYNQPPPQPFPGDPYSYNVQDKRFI
Data set [12] deals with Neuronal acetylcholine receptor; alpha4/beta2 (Homo sapiens, UniProt P17787+P43681). The data set can be described thus: Agonist activity at alpha4beta2 nAChR (unknown origin). The class given is protein-complex assay.
Chain of Neuronal acetylcholine receptor; alpha4/beta2 (P17787 whole entry): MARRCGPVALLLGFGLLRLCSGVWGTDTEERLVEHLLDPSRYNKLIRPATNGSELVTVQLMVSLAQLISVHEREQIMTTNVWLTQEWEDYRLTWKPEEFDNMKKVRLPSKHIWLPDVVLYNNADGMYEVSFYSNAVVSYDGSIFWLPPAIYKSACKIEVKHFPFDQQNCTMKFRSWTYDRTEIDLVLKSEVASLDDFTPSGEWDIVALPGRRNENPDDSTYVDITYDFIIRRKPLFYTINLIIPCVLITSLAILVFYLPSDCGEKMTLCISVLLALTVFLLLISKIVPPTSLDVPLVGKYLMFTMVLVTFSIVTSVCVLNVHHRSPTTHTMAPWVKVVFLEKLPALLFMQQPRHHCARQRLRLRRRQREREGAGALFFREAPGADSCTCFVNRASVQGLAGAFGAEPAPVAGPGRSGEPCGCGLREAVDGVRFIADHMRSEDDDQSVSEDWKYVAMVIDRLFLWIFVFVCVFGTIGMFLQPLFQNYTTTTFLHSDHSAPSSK
Chain of Neuronal acetylcholine receptor; alpha4/beta2 (P43681 whole entry): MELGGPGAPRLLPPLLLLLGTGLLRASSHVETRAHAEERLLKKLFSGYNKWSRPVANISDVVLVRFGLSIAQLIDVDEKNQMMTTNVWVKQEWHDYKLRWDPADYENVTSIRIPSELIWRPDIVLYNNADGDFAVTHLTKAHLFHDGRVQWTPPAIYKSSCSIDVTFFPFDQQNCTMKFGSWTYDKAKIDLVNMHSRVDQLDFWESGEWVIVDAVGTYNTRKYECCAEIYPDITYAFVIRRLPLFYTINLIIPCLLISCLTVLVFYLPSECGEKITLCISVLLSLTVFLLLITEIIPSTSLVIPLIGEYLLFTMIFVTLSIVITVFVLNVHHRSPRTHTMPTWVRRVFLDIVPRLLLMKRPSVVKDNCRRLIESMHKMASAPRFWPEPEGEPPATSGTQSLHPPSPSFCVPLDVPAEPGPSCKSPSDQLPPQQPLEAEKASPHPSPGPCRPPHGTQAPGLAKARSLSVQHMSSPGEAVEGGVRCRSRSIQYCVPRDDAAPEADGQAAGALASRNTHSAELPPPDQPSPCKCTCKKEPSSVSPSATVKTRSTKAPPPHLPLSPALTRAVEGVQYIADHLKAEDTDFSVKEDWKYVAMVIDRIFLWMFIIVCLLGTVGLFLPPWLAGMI
The target of data set [13] is T2, 5-hydroxytryptamine receptor 3A (Homo sapiens, UniProt P46098).
T2 sequence (P46098 whole entry): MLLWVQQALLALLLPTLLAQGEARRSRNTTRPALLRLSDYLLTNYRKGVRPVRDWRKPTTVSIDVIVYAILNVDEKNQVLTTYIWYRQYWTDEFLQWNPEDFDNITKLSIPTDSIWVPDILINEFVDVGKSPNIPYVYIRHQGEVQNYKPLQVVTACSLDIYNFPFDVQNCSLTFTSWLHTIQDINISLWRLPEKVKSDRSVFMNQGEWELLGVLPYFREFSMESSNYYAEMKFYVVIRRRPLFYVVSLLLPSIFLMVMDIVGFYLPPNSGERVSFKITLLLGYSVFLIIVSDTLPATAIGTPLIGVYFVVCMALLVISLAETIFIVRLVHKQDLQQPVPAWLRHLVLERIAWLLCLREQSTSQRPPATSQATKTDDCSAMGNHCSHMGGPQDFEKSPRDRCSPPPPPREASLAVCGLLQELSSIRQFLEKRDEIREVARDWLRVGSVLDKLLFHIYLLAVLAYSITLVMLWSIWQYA
The data set can be described thus: Inhibition of 5HT3 receptor (unknown origin).

Data set [14] can be described thus: Selectivity ratio of EC50 for alpha4beta2 nAChR (unknown origin) to EC50 for rat alpha7 nAChR.
A short description of data set [15]: Selectivity ratio of IC50 for 5HT3 receptor (unknown origin) to EC50 for rat alpha7 nAChR.
Data set [16] is described as follows: Selectivity ratio of EC50 for alpha1beta1deltaepsilon nAChR (unknown origin) to EC50 for rat alpha7 nAChR.
Data set [17] in a line: Selectivity ratio of EC50 for alpha3beta4 nAChR (unknown origin) to EC50 for rat alpha7 nAChR.

Chain of Neuronal acetylcholine receptor; alpha3/beta4 (P30926 whole entry): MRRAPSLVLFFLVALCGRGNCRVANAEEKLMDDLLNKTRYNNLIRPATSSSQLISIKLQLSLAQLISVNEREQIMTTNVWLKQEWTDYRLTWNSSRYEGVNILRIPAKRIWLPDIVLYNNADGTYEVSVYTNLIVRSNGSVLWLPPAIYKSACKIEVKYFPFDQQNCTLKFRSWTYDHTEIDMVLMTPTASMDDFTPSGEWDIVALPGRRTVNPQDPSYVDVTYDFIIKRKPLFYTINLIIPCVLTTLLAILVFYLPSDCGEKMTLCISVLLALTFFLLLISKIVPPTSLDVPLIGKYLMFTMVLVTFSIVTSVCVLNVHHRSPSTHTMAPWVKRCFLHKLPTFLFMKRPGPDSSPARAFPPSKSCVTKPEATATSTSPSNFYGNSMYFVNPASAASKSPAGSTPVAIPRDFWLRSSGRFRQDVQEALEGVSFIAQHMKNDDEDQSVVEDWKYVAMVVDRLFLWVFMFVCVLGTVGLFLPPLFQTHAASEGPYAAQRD
Chain of Neuronal acetylcholine receptor; alpha3/beta4 (P32297 whole entry): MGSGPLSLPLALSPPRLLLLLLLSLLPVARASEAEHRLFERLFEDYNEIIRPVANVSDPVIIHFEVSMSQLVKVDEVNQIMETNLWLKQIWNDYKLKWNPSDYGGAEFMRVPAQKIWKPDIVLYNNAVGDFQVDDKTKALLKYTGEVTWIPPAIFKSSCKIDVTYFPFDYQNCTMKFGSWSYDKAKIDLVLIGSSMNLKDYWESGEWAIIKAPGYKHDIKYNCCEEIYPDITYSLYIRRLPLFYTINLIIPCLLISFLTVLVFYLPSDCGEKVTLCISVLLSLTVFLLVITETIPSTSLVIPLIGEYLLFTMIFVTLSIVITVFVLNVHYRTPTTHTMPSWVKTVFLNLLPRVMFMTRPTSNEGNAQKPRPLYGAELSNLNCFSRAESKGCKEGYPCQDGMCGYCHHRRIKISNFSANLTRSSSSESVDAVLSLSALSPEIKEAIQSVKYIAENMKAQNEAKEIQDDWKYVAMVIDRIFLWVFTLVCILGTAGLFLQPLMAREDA

In [1], `O=c1cc(-c2ccccc2)c2ccccc2n1CC1CN2CCC1CC2` (centres undefined) gave a pKa of 10.1. Also, the maximal response (Emax) in data set [2] stood at 110%; in data set [4] it was 60%. In addition, the EC50 worked out at 760 nM in data set [3] and 150 nM in data set [5]. For the same molecule, the Kp at 0.5 h in data set [6] came out at 0.02. Also, in data set [7], the efflux ratio worked out at 6.9. The Papp in data set [8] stood at 90 ×10⁻⁶ cm/s.
For the molecule `O=c1cc(-c2ccccc2)c2ccccc2n1CC1CNCCO1` (centres undefined), the pKa in [1] is 8.1. Also, the figures for the Emax in data set [2] and in data set [4] were 41% and 34%, respectively. The 50% effective concentration (EC50) in [3] is 1200 nM; in [5], 260 nM. In addition, the Kp at 0.5 h in data set [9] stood at 0.9. Further, the efflux ratio in data set [7] came out at 1. Further, the Papp in data set [8] was determined as 55 ×10⁻⁶ cm/s.
As for `O=c1cc(-c2ccccc2)c2ccccc2n1CC1CCCNC1` (centres undefined), the results for the Emax in data set [2] and in [4] were 30% and 60%, respectively. Further, the results for the EC50 in data set [3] and in data set [5] were 2500 nM and 210 nM, respectively.
`CNCCCn1c(=O)c(C#N)c(-c2ccccc2)c2ccccc21`: in data set [5], the EC50 was 900 nM.
Still for that read-out and setting: then `N#Cc1c(-c2ccccc2)c2ccccc2n(CCCN2CCCC2)c1=O`, with 9300 nM.
Take `CCN(C)CCCn1c(=O)c(C#N)c(-c2ccccc2)c2ccccc21`: the half-maximal effective concentration (EC50) in data set [5] is 4300 nM.
`CN(C)CCCn1c(=O)c(C#N)cc2ccccc21`: the EC50 in data set [5] was greater than 10000 nM.
Same read-out and setting: in the case of `CN(C)CCCn1ccc(-c2ccccc2)c(C#N)c1=O` it was greater than 10000 nM.
As to `CN(C)CCCn1c(=O)c(C#N)c(-c2ccccc2)c2ccccc21`, the Emax was 44% in data set [2] and 15% in data set [4]. Besides, the half-maximal effective concentration (EC50) is greater than 100000 nM in data set [10]; 8200 nM in data set [3]; 1300 nM in [5]; greater than 100000 nM in data set [11]; greater than 100000 nM in data set [12]. Besides, 19000 nM corresponded to half-maximal inhibition in data set [13] (IC50).
For `CN(C)CCCn1c(=O)cc(-c2ccccc2)c2ccccc21`, in [5], the half-maximal effective concentration (EC50) turned out to be 2800 nM.
Consider `CN(C)CCn1c(=O)cc(-c2ccccc2)c2ccccc21`, for which the EC50 in [5] is greater than 10000 nM.
On the same count and under the same terms, in the case of `CN(C)CCCCn1c(=O)cc(-c2ccccc2)c2ccccc21` it was greater than 10000 nM.
Consider `CC(=O)NCc1cccc(-c2cc(=O)n(CC3CCCNC3)c3ccccc23)c1` (racemic), for which the 50% effective concentration (EC50) in [5] amounted to 100 nM.
`O=c1cc(-c2ccccc2)c2ccccc2n1CC1CN2CCC1(F)CC2` (racemic): the pKa in data set [1] stood at 7.6. Further, the efflux ratio in data set [7] is 0.6. Moreover, the Papp in data set [8] worked out at 38 ×10⁻⁶ cm/s.
As for `CC(=O)NCc1cccc(-c2cc(=O)n(CC3CN4CCC3CC4)c3ccccc23)c1` (racemic), the maximal response (Emax) in data set [2] turned out to be 84%; in data set [4], 21%. In addition, the Ratio EC50 in data set [14], in [16] and in [17] was 100 each time. In addition, the Ratio IC50/EC50 in data set [15] came to 50. The concentration for a half-maximal effect (EC50) in [5] was determined as 32 nM. In addition, the Papp in data set [8] turned out to be 0.1 ×10⁻⁶ cm/s.
For `CS(=O)(=O)NCc1cccc(-c2cc(=O)n(CC3CN4CCC3CC4)c3ccccc23)c1` (racemic), the Emax in data set [2] amounted to 97%; in [4], 21%. Also, the Ratio EC50 in data set [14], in [16] and in [17] was 100 each time. The values for the concentration giving a half-maximal response (EC50) in data set [3] and in data set [5] were 260 nM and 14 nM, respectively. Moreover, the Ratio IC50/EC50 in data set [15] is 50.
For the molecule `O=c1cc(-c2cccc3[nH]ccc23)c2ccccc2n1CC1CN2CCC1CC2` (racemic), the results for the Emax in data set [2] and in data set [4] were 80% and 62%, respectively. Moreover, the Ratio EC50 in data set [14], in [16] and in data set [17] was 100 throughout. The results for the concentration for a half-maximal effect (EC50) in [3] and in [5] were 540 nM and 23 nM, respectively. In addition, the Ratio IC50/EC50 in data set [15] turned out to be 50. For the same molecule, in data set [7], the efflux ratio was greater than 18. The Papp in data set [8] stood at 40 ×10⁻⁶ cm/s.
Consider `Cc1ccc(-c2cc(=O)n(CC3CCCNC3)c3ccccc23)cc1` (racemic), for which, in data set [5], the EC50 is greater than 10000 nM.
On the same count and under the same terms, then `O=c1cc(-c2cccc3[nH]ccc23)c2ccccc2n1CC1CCCNC1` (racemic), with 110 nM; and `CS(=O)(=O)NCc1cccc(-c2cc(=O)n(CC3CCCNC3)c3ccccc23)c1` (racemic), with 77 nM; and `COc1cccc(-c2cc(=O)n(CC3CCCNC3)c3ccccc23)c1` (racemic), with 1300 nM.
On the same count and under the same terms, then `Cc1ccccc1-c1cc(=O)n(CC2CCCNC2)c2ccccc12` (racemic), with 1500 nM.
On the same count and under the same terms, then `CN1CCCC(Cn2c(=O)c(C#N)c(-c3ccccc3)c3ccccc32)C1` (racemic), with greater than 10000 nM; and `N#Cc1c(-c2ccccc2)c2ccccc2n(CC2CCCNC2)c1=O` (racemic), with 460 nM; and `CC(CN(C)C)Cn1c(=O)cc(-c2ccccc2)c2ccccc21` (racemic), with greater than 10000 nM.
As to `CC(CCn1c(=O)cc(-c2ccccc2)c2ccccc21)N(C)C` (racemic), the half-maximal effective concentration (EC50) in [5] was greater than 10000 nM.
Take `c1cnc2c(c1)C[C@@]1(CN3CCC1CC3)O2` [AZD0328]: in data set [1], the pKa is 8.9. Moreover, in data set [9], the Kp at 0.5 h came out at 1.7. For the same molecule, the efflux ratio in data set [7] was found to be 0.9. Further, the Papp in data set [8] came to 51 ×10⁻⁶ cm/s.

In general, pKa refers to the negative logarithm of the acid dissociation constant. Read a high pKa as a weaker acid or stronger base. By Emax is commonly meant the greatest response seen or fitted, relative to the assay's reference. A word on the EC50: it is the concentration needed to bring the measured effect to its halfway point. Usually efflux ratio stands for a quotient of directional permeabilities that is used to spot active efflux. What is called IC50 is the concentration at which inhibition is half-maximal.
